Test results: PubChem BioAssay (NCI)
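The concentration for 50% growth inhibition is given as GI50. At the TGI there is no net growth.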

Legend:
Test in all cases: inhibition of tumour cell growth, NCI panel, 384-well format
[1] = test system: NCI-H23 lung
[2] = test system: SW-620 colon
[3] = test system: HT29 colon
[4] = test system: DU-145 prostate
[5] = test system: SF-268 CNS
[6] = test system: A498 renal
[7] = test system: NCI-H226 lung
[8] = test system: M14 melanoma
[9] = test system: SN12C renal
[10] = test system: OVCAR-5 ovarian
[11] = test system: HCT-15 colon
[12] = test system: SR leukemia
[13] = test system: HL-60(TB) leukemia
[14] = test system: IGROV1 ovarian
[15] = test system: LOX IMVI melanoma
[16] = test system: K-562 leukemia
[17] = test system: HCT-116 colon
[18] = test system: MALME-3M melanoma
[19] = test system: HS 578T breast
[20] = test system: HOP-62 NSCLC
[21] = test system: NCI-H522 lung
[22] = test system: SK-OV-3 ovarian
[23] = test system: MDA-MB-468 breast
[24] = test system: A549 NSCLC
[25] = test system: PC-3 prostate
[26] = test system: HOP-92 NSCLC
[27] = test system: MCF7 breast
[28] = test system: OVCAR-3 ovarian
[29] = test system: HCC-2998 colon
[30] = test system: OVCAR-8 ovarian
[31] = test system: RPMI-8226 leukemia
[32] = test system: NCI/ADR-RES ovarian
[33] = test system: SNB-19 CNS
[34] = test system: NCI-H322M lung
[35] = test system: UACC-257 melanoma
[36] = test system: MOLT-4 leukemia
[37] = test system: SK-MEL-28 melanoma
[38] = test system: SK-MEL-2 melanoma
[39] = test system: MDA-MB-231 breast
[40] = test system: MDA-MB-435 melanoma
[41] = test system: CCRF-CEM leukemia
[42] = test system: 786-0 renal
[43] = test system: T-47D breast
[44] = test system: UO-31 renal
[45] = test system: SNB-75 CNS
[46] = test system: EKVX NSCLC
[47] = test system: NCI-H460 NSCLC

## O=S(=O)(c1ccc2c(c1)C(=NO)c1cc(S(=O)(=O)N3CCCCC3)ccc1-2)N1CCCCC1
[1]
  GI50: 92.7 nM
  TGI: 228 nM
[2]
  GI50: 182 nM
  TGI: 323 nM
[3]
  GI50: 184 nM
  TGI: 326 nM
[4]
  GI50: 177 nM
  TGI: 318 nM
[5]
  GI50: 165 nM
  TGI: 303 nM
[6]
  GI50: 1490 nM
  TGI: 3100 nM
[7]
  GI50: 168 nM
  TGI: 309 nM
[8]
  GI50: 170 nM
  TGI: 308 nM
[9]
  GI50: 181 nM
  TGI: 323 nM
[10]
  GI50: 184 nM
  TGI: 324 nM
[11]
  GI50: 186 nM
  TGI: 333 nM
[12]
  GI50: 158 nM
  TGI: 294 nM
[13]
  GI50: 16.9 nM
  TGI: 30.9 nM
[14]
  GI50: 162 nM
  TGI: 306 nM
[15]
  GI50: 17.2 nM
  TGI: 32 nM
[16]
  GI50: 170 nM
  TGI: 313 nM
[17]
  GI50: 173 nM
  TGI: 316 nM
[18]
  GI50: 179 nM
  TGI: 321 nM
[19]
  GI50: 175 nM
  TGI: 314 nM
[20]
  GI50: 97.6 nM
  TGI: 216 nM
[21]
  GI50: 172 nM
  TGI: 314 nM
[22]
  GI50: 169 nM
  TGI: 308 nM
[23]
  GI50: 58.4 nM
  TGI: 171 nM
[24]
  GI50: 171 nM
  TGI: 315 nM
[25]
  GI50: 165 nM
  TGI: 303 nM
[26]
  GI50: 116 nM
  TGI: 242 nM
[27]
  GI50: 187 nM
  TGI: 334 nM
[28]
  GI50: 146 nM
  TGI: 281 nM
[29]
  GI50: 166 nM
  TGI: 303 nM
[30]
  GI50: 153 nM
  TGI: 288 nM
[31]
  GI50: 106 nM
  TGI: 226 nM
[32]
  GI50: 342 nM
  TGI: 1140 nM
[33]
  GI50: 189 nM
  TGI: 332 nM
[34]
  GI50: 178 nM
  TGI: 320 nM
[35]
  GI50: 180 nM
  TGI: 320 nM
[36]
  GI50: 168 nM
  TGI: 306 nM
[37]
  GI50: 171 nM
  TGI: 309 nM
[38]
  GI50: 196 nM
  TGI: 339 nM
[39]
  GI50: 139 nM
  TGI: 270 nM
[40]
  GI50: 183 nM
  TGI: 323 nM
[41]
  GI50: 82.5 nM
  TGI: 205 nM
[42]
  GI50: 223 nM
  TGI: 525 nM
[43]
  GI50: 155 nM
  TGI: 290 nM
[44]
  GI50: 16 nM
  TGI: 29.8 nM
[45]
  GI50: 184 nM
  TGI: 324 nM
[46]
  GI50: 115 nM
  TGI: 241 nM
[47]
  GI50: 170 nM
  TGI: 314 nM
